Reference: patent US20230123695A1, “GLYCAN COMPOSITIONS AND METHODS OF USE” (DSM Nutritional Products, LLC, priority 2018, published 2023)

Experiments:
Assay type in all cases: cell-based, human fecal cultures
[1] = test system: Firmicutes, Proteobacteria, and/or Actinobacteria; test: Ex vivo fecal slurry assay, 16S rRNA sequencing (Example 11); conditions: 1% w/v fecal slurry from 12 subjects, glycan 0.5% w/v, 37° C., 18 hours, anaerobically; FIGS. 4-6
Description: (§1) An ex vivo assay was designed to determine if glycans can be used to modulate a complex community of microorganisms and if the glycans produced consistent effects across communities obtained from multiple (twelve) subjects. Fecal samples and slurries were handled in an anaerobic chamber (AS-580, Anaerobe Systems) featuring a palladium catalyst. Glycans ara100, gal100, glu60man40, glu100, glu50gal50, gal33man33ara33, man75gal25, glu33gal33man34, glu33gal33Ara33, man100, man52glu29gal19 and commercially available glycans lactulose (Alfa Aesar) and FOS (Nutraflora FOS; NOW Foods, Bloomingdale Ill.) were included in the study. The fecal sample donations obtained from 12 subjects were stored at −80° C. To prepare working stocks the fecal samples were transferred into the anaerobic chamber and allowed to thaw.
Microbial beta-glucuronidase, found in Proteobacteria, Firmicutes, and Actinobacteria, is known to modify SN-38 glucuronide, which is used to treat cancer (e.g., colorectal cancer) and has the side-effect of diarrhea, by removing a sugar moiety, creating a compound that is toxic to intestinal epithelial cells. Decreasing the levels or activity of microbial beta-glucuronidase expressing microbes may increase the effectiveness of SN-38 glucuronidine treatment and/or decrease/prevent side effects.

[2] = test system: Enterobacteriales/Enterobacteriaceae microbes; test: Ex vivo fecal slurry assay, 16S rRNA sequencing (Example 19); conditions: 1% w/v fecal slurry from 12 subjects, glycan 0.5% w/v, 37° C., 18 hours, anaerobically; FIG. 15
Description: as §1
Microbial phosphorylase, e.g., thymidine phosphorylase or uridine phosphorylase, found in Enterobacteria, e.g., K. pneumoniae, is known to deglycosylate sorivudine, inactivating it. Sorivudine is used to treat viral infection (e.g. herpes simplex virus 1 and varicella-zoster virus). Decreasing the levels or activity of microbes expressing said microbial phosphorylase may decrease the inactivation of sorivudine and increase the effectiveness of sorivudine treatment against viral infections.

[3] = test system: Enterococcaceae/Enterococcus and/or Bifidobacteriaceae/Bifidobacterium; test: Ex vivo fecal slurry assay, 16S rRNA sequencing (Example 15); conditions: 1% w/v fecal slurry from 12 subjects, glycan 0.5% w/v, 37° C., 18 hours, anaerobically; FIGS. 3 and 10
Description: as §1
A microbial enzyme, found in Enterococcus faecium, Lactobacillus mucosae, Bifidobacterium sp., and Eggerthella sp., is known to metabolize daidzin into equol, which binds estrogen receptor-beta and may be associated with lower risk/incidence of breast cancer. Increasing the levels or activity of microbes expressing said microbial enzyme may increase the have a preventative effect on cancer, e.g., breast cancer, or treat cancer, e.g., breast cancer.

[4] = test system: Actinobacteria and/or Coriobacteriaceae/Gordonibacter; test: Ex vivo fecal slurry assay, 16S rRNA sequencing (Example 13); conditions: 1% w/v fecal slurry from 12 subjects, glycan 0.5% w/v, 37° C., 18 hours, anaerobically; FIGS. 6 and 8
Description: as §1
A microbial enzyme found in Actinobacteria and Coriobacteriaceae/Gordonibacter is known to hydrolyze ellagitannin to ellagic acid.

[5] = test system: Enterococcaceae/Enterococcus and/or Enterobacteriaceae/Escherichia/Shigella microbes; test: Ex vivo fecal slurry assay, 16S rRNA sequencing (Example 18); conditions: 1% w/v fecal slurry from 12 subjects, glycan 0.5% w/v, 37° C., 18 hours, anaerobically; FIGS. 3 and 14
Description: as §1
A microbial enzyme, found in Enterococcus, Clostridium, Corynebacterium, Campylobacter, and Escherichia, is known to convert sweetener to a compound that can be toxic, e.g., converts cyclamate to cyclohexylamine, which can be toxic. Decreasing the levels or activity of microbes expressing said microbial enzyme may decrease the generation of toxic compounds.

[6] = test system: Ruminococcaceae/Ruminococcus microbes; test: Ex vivo fecal slurry assay, 16S rRNA sequencing (Example 21); conditions: 1% w/v fecal slurry from 12 subjects, glycan 0.5% w/v, 37° C., 18 hours, anaerobically; FIG. 17
Description: as §1
A microbial enzyme found in Bacteroidetes (e.g., Bacteroidales) and mucolytic bacteria such as Ruminococcus gnavus, is known to cause metabolic and inflammatory response to emulsifying agents. Decreasing the levels or activity of microbes expressing said microbial enzyme may increase the effectiveness of emulsifying agents, e.g, carboxymethylcellulose or polysorbate-80, e.g., to decrease risk/incidence of metabolic syndrome and/or inflammation.

[7] = test system: Enterobacteriaceae/Escherichia/Shigella microbes; test: Ex vivo fecal slurry assay, 16S rRNA sequencing (Example 17); conditions: 1% w/v fecal slurry from 12 subjects, glycan 0.5% w/v, 37° C., 18 hours, anaerobically; FIG. 14
Description: as §1
Microbial beta-glucuronidase, found in bacteria that carry the uidA gene, e.g., Escherichia coli, is known to reactivate glucuronidated substrate, e.g., heterocyclic amines, (detoxified by hepatic glucuronidation), by removing the conjugate, generating a toxic compound. Decreasing the levels or activity of microbial beta-glucuronidase expressing microbes may decrease the generation of toxic, e.g., carcinogenic, compounds, which may have a preventative effect on cancer.

OC[C@H]1O[C@@H](O[C@@H]2[C@@H](CO)OC(O)(CO)[C@H]2O)[C@H](O)[C@@H](O)[C@H]1O (mixture of isomers) [lactulose]
levels of Firmicutes, Proteobacteria, and/or Actinobacteria [1]: appeared to decrease | levels of Enterobacteriales/Enterobacteriaceae microbes [2]: appeared to decrease | levels of Enterococcaceae/Enterococcus and/or Bifidobacteriaceae/Bifidobacterium [3]: appeared to increase | levels of Actinobacteria and/or Coriobacteriaceae/Gordonibacter [4]: appeared to decrease | levels of Enterococcaceae/Enterococcus and/or Enterobacteriaceae/Escherichia/Shigella microbes [5]: appeared to decrease | levels of Ruminococcaceae/Ruminococcus microbes [6]: appeared to decrease | levels of Enterobacteriaceae/Escherichia/Shigella microbes [7]: appeared to decrease
